This is an account of results in patent US10933002B2, “Preservation booster” (DSM IP ASSETS B.V., priority 2017, dated 2021).

The experiment concerns Escherichia coli. Briefly: antimicrobial efficacy in analogy to the regulatory challenge test method (NF EN ISO11930). Type of experiment: cell-based. To be noted: 0.2 wt.-% test solution in physiological serum; 24 h after contamination; 22° C.; initial contamination 580000 cfu/ml. The procedure:
The term “antimicrobial activity” (or “antimicrobial effect”) as used herein means a capability of killing and/or inhibiting the growth of pathogenic or unwanted bacteria, such as in particular Escherichia coli (Escherichia coli ATCC 8739). The applied measuring method is NF EN IS011930. The antimicrobial efficacy is assessed in analogy to the regulatory challenge test method (NF EN ISO11930). Thus, solutions of the respective active(s) in ethanol are prepared and further dissolved in physiological serum with 0.85 wt.-% NaCl in the concentrations as outlined in table 1 under sterile conditions. Samples containing phytantriol were solubilized in physiological serum supplemented with 10 wt.-% ethanol, samples containing erythrulose only were solubilized in physiological serum supplemented with 1 wt.-% ethanol. The solutions of the active(s) were deposed in 96-deep well plates (1.6 ml/well). The wells are contaminated with the Escherichia coli at 1.5*10^5 to 1*10^6 cfu/ml to obtain the initial contamination as outlined in table 1. After the contamination, each well was thoroughly mixed to ensure a homogeneous distribution of E. coli. Then each plate was incubated at 22° C. for 24 h. The counting of the (remaining) population is carried out 24 h after contamination.

With `O=C(CO)[C@H](O)CO` (racemic) [erythrulose], the “Escherichia coli colony count” value is given as 33700 cfu/ml and the Log reduction is −1.236.

Turning to `CC(C)CCCC(C)CCCC(C)CCCC(C)(O)C(O)CO` (stereo not shown) [phytantriol, 3,7,11,15-tetramethyl-1,2,3-hexadecanetriol], the “Escherichia coli colony count” value was 1000 cfu/ml and the Log reduction is given as −2.763.
